Broadly, the Ki is the equilibrium dissociation constant of an inhibitor or competing ligand from its target.

Experiment [1] concerns the target HCV NS3 protease genotype 3a (3A-1) (Hepatitis C virus genotype 3a, UniProt Q81258). Briefly: HCV NS3 protease time-resolved fluorescence (TRF) assay, genotype 3a. Format: biochemical. The following applies: Ki 3a. The procedure, abridged:
(§1)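 Time-resolved fluorescence, ex 340/em 615 nm, 400 μs delay; IC50 by four-parameter fit. Enzyme preincubated with compound 10 min, then TRF substrate 25 nM final added and reaction run 6 h at RT. Buffer HEPES pH 7.5 with NaCl, glycerol, Triton X-100, DTT, PEG 8000.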

In experiment [2] the target is T1, HCV genotype 1b (BK) NS3 modified enzyme with a R155K mutation (Hepatitis C virus genotype 1b, UniProt P26663, R1181K).
T1 construct: HCV genotype 1b (BK) NS3 modified enzyme
Briefly: HCV NS3 protease time-resolved fluorescence (TRF) assay, genotype 1b R155K. The class given is biochemical. Conditions: Ki 1b R155K, genotype 1b (BK) NS3 R155K; single value. The procedure, abridged:
as §1

In the case of `O=C1N[C@@H](C2CCCC2)C(=O)N2C[C@@H](C[C@H]2C(=O)N[C@]2(C(=O)NS(=O)(=O)C3CC3)C[C@H]2C2CC2)Oc2nc3ccccc3c(O)c2C/C=C/CC[C@@H]2CCC[C@H]2O1` [Example 21, (3aR,7S,10S,12R,21E,24aS)-7-cyclopentyl-N-[(1S,2R)-2-[(cyclopropylsulfonyl)carbamoyl]-1,1′-bi(cyclopropyl)-2-yl]-19-hydroxy-5,8-dioxo-1,2,3,3a,5,6,7,8,11,12,20,23,24,24a-tetradecahydro-10H-9,12-methanocyclopenta[18,19][1,10,3,6]dioxadiazacyclononadecino[11,12-b]quinoline-10-carboxamide], the Ki in experiment [1] turned out to be 9.6 nM; in experiment [2], 0.51 nM.
Consider `C=C[C@@H]1C[C@]1(NC(=O)[C@@H]1C[C@@H]2CN1C(=O)[C@H](C1CCCC1)NC(=O)O[C@@H]1CCC[C@H]1CC/C=C/Cc1c(nc3ccc(Br)cc3c1O)O2)C(=O)NS(=O)(=O)C1CC1` [Example 22, (3aR,7S,10S,12R,21E,24aS)-17-bromo-7-cyclopentyl-N-{(1R,2S)-1-[(cyclopropylsulfonyl)carbamoyl]-2-ethenylcyclopropyl}-19-hydroxy-5,8-dioxo-1,2,3,3a,5,6,7,8,11,12,20,23,24,24a-tetradecahydro-10H-9,12-methanocyclopenta[18,19][1,10,3,6]dioxadiazacyclononadecino[11,12-b]quinoline-10-carboxamide], for which the Ki in experiment [1] turned out to be 9.3 nM; in experiment [2] it was 0.33 nM.
As to `C=C[C@@H]1C[C@]1(NC(=O)[C@@H]1C[C@@H]2CN1C(=O)[C@H](C1CCCC1)NC(=O)O[C@@H]1CCC[C@H]1CC/C=C/Cc1c(nc3ccccc3c1O)O2)C(=O)NS(=O)(=O)C1(C)CC1` [Example 23, (3aR,7S,10S,12R,21E,24aS)-7-cyclopentyl-N-[(1R,2S)-2-ethenyl-1-{[(1-methylcyclopropyl)sulfonyl]carbamoyl}cyclopropyl]-19-hydroxy-5,8-dioxo-1,2,3,3a,5,6,7,8,11,12,20,23,24,24a-tetradecahydro-10H-9,12-methanocyclopenta[18,19][1,10,3,6]dioxadiazacyclononadecino[11,12-b]quinoline-10-carboxamide], the Ki in experiment [1] was 0.64 nM; in experiment [2], 0.11 nM.
The like results for `C=C[C@@H]1C[C@]1(NC(=O)[C@@H]1C[C@@H]2CN1C(=O)[C@H](C1CCCC1)NC(=O)O[C@@H]1CCC[C@H]1CCCCCc1c(nc3ccccc3c1OCC)O2)C(=O)NS(=O)(=O)C1CC1` [Example 24, (3aR,7S,10S,12R,24aR)-7-cyclopentyl-N-{(1R,2S)-1-[(cyclopropylsulfonyl)carbamoyl]-2-ethenylcyclopropyl}-19-ethoxy-5,8-dioxo-1,2,3,3a,5,6,7,8,11,12,20,21,22,23,24,24a-hexadecahydro-10H-9,12-methanocyclopenta[18,19][1,10,3,6]dioxadiazacyclononadecino[11,12-b]quinoline-10-carboxamide] were, in that order, 9.1 nM and 0.39 nM.
The matching figures for `CCOc1c2c(nc3ccccc13)O[C@@H]1C[C@@H](C(=O)N[C@]3(C(=O)NS(=O)(=O)C4CC4)C[C@H]3CC)N(C1)C(=O)[C@H](C1CCCC1)NC(=O)O[C@@H]1CCC[C@H]1CCCCC2` [Example 25, (3aR,7S,10S,12R,24aR)-7-cyclo pentyl-N-{(1R,2R)-1-[(cyclopropylsulfonyl)carbamoyl]-2-ethylcyclopropyl}-19-ethoxy-5,8-dioxo-1,2,3,3a,5,6,7,8,11,12,20,21,22,23,24,24a-hexadecahydro-10H-9,12-methanocyclopenta[18,19][1,10,3,6]dioxa diazacyclononadecino[11,12-b]quinoline-10-carboxamide]: 88 nM and 5.2 nM.
`C=C[C@@H]1C[C@]1(NC(=O)[C@@H]1C[C@@H]2CN1C(=O)[C@H](C1CCCC1)NC(=O)O[C@@H]1CCC[C@H]1CCCCCc1c(nc3ccccc3c1OC)O2)C(=O)NS(=O)(=O)C1CC1` [Example 26, (3aR,7S,10S,12R,24aR)-7-cyclo pentyl-N-{(1R,2S)-1-[(cyclopropylsulfonyl)carbamoyl]-2-ethenylcyclopropyl}-19-methoxy-5,8-dioxo-1,2,3,3a,5,6,7,8,11,12,20,21,22,23,24,24a-hexadecahydro-10H-9,12-methanocyclopenta [18,19][1,10,3,6]dioxadiazacyclononadecino [11,12-b]quinoline-10-carboxamide]: the Ki in experiment [1] worked out at 13 nM; in experiment [2] it was 0.33 nM.
Consider `CC[C@@H]1C[C@]1(NC(=O)[C@@H]1C[C@@H]2CN1C(=O)[C@H](C1CCCC1)NC(=O)O[C@@H]1CCC[C@H]1CCCCCc1c(nc3ccccc3c1OC)O2)C(=O)NS(=O)(=O)C1CC1` [Example 27, (3aR,7S,10S,12R,24aR)-7-cyclo pentyl-N-{(1R,2R)-1-[(cyclopropylsulfonyl)carbamoyl]-2-ethylcyclopropyl}-19-methoxy-5,8-dioxo-1,2,3,3a,5,6,7,8,11,12,20,21,22,23,24,24a-hexadeca hydro-10H-9,12-methanocyclopenta[18,19] [1,10,3,6]dioxadiazacyclononadecino[11,12-b] quinoline-10-carboxamide], for which the figures for the inhibition constant (Ki) in experiment [1] and in experiment [2] were 59 nM and 2.5 nM, respectively.
`C=C[C@@H]1C[C@]1(NC(=O)[C@@H]1C[C@@H]2CN1C(=O)[C@H](C1CCCC1)NC(=O)O[C@@H]1C[C@H]1CCCCCc1c(nc3ccccc3c1OC)O2)C(=O)NS(=O)(=O)C1CC1` [Example 28, (1aR,5S,8S,10R,22aR)-5-cyclo pentyl-N-{(1R,2S)-1-[(cyclopropylsulfonyl)carbamoyl]-2-ethenylcyclopropyl}-17-methoxy-3,6-dioxo-1,1a, 3,4,5,6,9,10,18,19,20,21,22,22a-tetradecahydro-8H-7,10-methanocyclopropa[18,19][1,10,3,6] dioxadiazacyclononadecino[11,12-b]quinoline-8-carboxamide]: the Ki came to 35 nM in experiment [1] and 0.7 nM in experiment [2].
As to `C=C[C@@H]1C[C@]1(NC(=O)[C@@H]1C[C@@H]2CN1C(=O)[C@H](C1CCCC1)NC(=O)O[C@@]1(C)CCC[C@@H]1CCCCCc1c(nc3ccccc3c1O)O2)C(=O)NS(=O)(=O)C1CC1` [Example 30, (3aS,7S,10S,12R,24aS)-7-cyclopentyl-N-{(1R,2S)-1-[(cyclopropylsulfonyl)carbamoyl]-2-ethenylcyclopropyl}-19-hydroxy-3a-methyl-5,8-dioxo-1,2,3,3a,5,6,7,8,11,12,20,21,22,23,24,24a-hexa-decahydro-10H-9,12-methanocyclopenta[18,19] [1,10,3,6]dioxadiazacyclononadecino[11,12-b] quinoline-10-carboxamide], the Ki was 4.9 nM in experiment [1] and 1.3 nM in experiment [2].
The matching figures for `CC[C@@H]1C[C@]1(NC(=O)[C@@H]1C[C@@H]2CN1C(=O)[C@H](C1CCCC1)NC(=O)O[C@@]1(C)CCC[C@@H]1CCCCCc1c(nc3ccccc3c1O)O2)C(=O)NS(=O)(=O)C1CC1` [Example 31, (3aS,7S,10S,12R,24aS)-7-cyclopentyl-N-{(1R,2R)-1-[(cyclopropylsulfonyl)carbamoyl]-2-ethylcyclopropyl}-19-hydroxy-3a-methyl-5,8-dioxo-1,2,3-3a,5,6,7,8,11,12,20,21,22,23,24,24a-hexadeca hydro-10H-9,12-methanocyclopenta[18,19] [1,10,3,6]dioxadiazacyclononadecino[11,12-b] quinoline-10-carboxamide]: 23 nM and 4.1 nM.
The like results for `C=C[C@@H]1C[C@]1(NC(=O)[C@@H]1C[C@@H]2CN1C(=O)[C@H](C1CCCC1)NC(=O)N1CC[C@@H](C1)OCCCCCCc1c(nc3ccccc3c1OCC)O2)C(=O)NS(=O)(=O)C1CC1` [Example 33, (2R,4S,7S,13S)-7-cyclopentyl-N-{(1R,2S)-1-[(cyclopropylsulfonyl)carbamoyl]-2-ethenylcyclopropyl}-21-ethoxy-6,9-dioxo-3,4,6,7,8,9,12, 13,15,16,17,18,19,20-tetradecahydro-2H,11H-2,5:10,13-dimethano[1,14,5,7,10]dioxatriazacyclo docosino[15,16-b]quinoline-4-carboxamide] were, in that order, 22 nM and 0.32 nM.
As to `C=C[C@@H]1C[C@]1(NC(=O)[C@@H]1C[C@@H]2CN1C(=O)[C@H](C1CCCC1)NC(=O)O[C@@H]1CCC[C@H]1CCCCCc1c(nc3ccccc3c1O)O2)C(=O)NS(=O)(=O)C1CC1` [Example 34, (3aR,7S,10S,12R,24aR)-7-cyclo pentyl-N-{(1R,2S)-1-[(cyclopropylsulfonyl)carbamoyl]-2-ethenylcyclopropyl}-19-hydroxy-5,8-dioxo-1,2,3,3a,5,6,7,8,11,12,20,21,22,23,24,24a-hexadecahydro-10H-9,12-methanocyclopenta [18,19][1,10,3,6]dioxadiazacyclononadecino [11,12-b]quinoline-10-carboxamide], the Ki in experiment [1] was found to be 1.8 nM; in experiment [2], 0.1 nM.
As for `C=C[C@@H]1C[C@]1(NC(=O)[C@@H]1C[C@@H]2CN1C(=O)[C@H](C(C)(C)C)NC(=O)O[C@@H]1CCC[C@H]1CCCCCc1c(nc3ccccc3c1O)O2)C(=O)NS(=O)(=O)C1(COC)CC1` [Example 35, (3aR,7S,10S,12R,24aR)-7-tert-butyl-N-[(1R,2S)-2-ethenyl-1-({[1-(methoxymethyl)cyclopropyl]sulfonyl}carbamoyl)cyclopropyl]-19-hydroxy-5,8-dioxo-1,2,3,3a,5,6,7,8,11,12, 20,21,22,23,24,24a-hexadecahydro-10H-9,12-methanocyclopenta[18,19][1,10,3,6] dioxadiazacyclononadecino[11,12-b]quinoline-10-carboxamide], the values for the Ki in experiment [1] and in experiment [2] were 2 nM and 0.15 nM, respectively.

The record behind these values is US9328138B2 (priority 2011, dated 2016).
